{"source": "ChEMBL document CHEMBL5678800", "about": "(Mol Cancer Ther, 2009)", "system": "Rh41", "test": "Antiproliferative activity against human Rh41 cells assessed as inhibition of cell growth incubated for 72 hrs by 3H-thymidine incorporation assay", "format": "functional, cell-based", "data": [{"smiles": "Cc1cc(Nc2cc(N3CCN(C)CC3)nc(Sc3ccc(NC(=O)C4CC4)cc3)n2)n[nH]1", "note": "[TOZASERTIB]", "values": [{"measurement": "IC50", "result": 93, "unit": "nM"}]}]}
